The conditions of data set [1]: in methanol; cited from earlier work.
For data set [2], the system named is MCF-7 breast adenocarcinoma cells. Nature of the data set: Caspase-3/7 apoptosis assay, drug sensitive cells. The class given is cell-based, human. The following applies: MCF-7, 24 hrs. As for the experimental part:
(§1) Human MCF-7 breast adenocarcinoma cells and the adriamycin resistant MCF-7-ADR(NCl-AdrR) were grown at 37° C. in RPMI 1640 medium supplemented with 10% fetal bovine serum (FBS). MCF-7 and MCF-7-ADR cells were seeded to a density of 6×10^3 cells/well and grown for 48 hrs in culture medium containing 10% FBS. Cells were then treated with Cer10-CPNP or control CPNP for 24 hrs in media containing 1% fetal bovine serum. Caspase-3/7 enzymatic activity levels were then measured using the Apo-ONE Homogenous Caspase-3/7 Assay (Promega) and performed following the instructions of the manufacturer. The kit provides a caspase-3/7 substrate and Rhodamine 110, which is cleaved by enzymatically active caspase-3/7 resulting in a fluorogenic cleavage product.

In data set [3] the test system is MCF-7/ADR (adriamycin resistant) breast adenocarcinoma cells. The data set can be described thus: Caspase-3/7 apoptosis assay, drug resistant cells. As to conditions: 24 hrs. The class given is cell-based, human. The method, then:
as §1

Data set [4] can be described thus: Fluorescence correlation spectroscopy in DPBS (pH dependent dissolution). In kind it is physicochemical. The following applies: for Diffusion coefficient, average / RH (hydrodynamic radius), average: DPBS pH 4, free dye, average of ten measurements. From the text:
Fluorescence correlation spectroscopy was used to determine the solution phase behavior of the particles in order to better understand the particulate behavior in biologically-relevant solutions and to monitor only the fluorescing species. To this end we examined the free dye and the particles in DPBS (Dulbecco's phosphate buffered saline), at pH 7 and at pH 4. Low pH conditions mimicked the acidic environment of an endo-lysosome in which a particle would be enveloped during endocytosis.
FCS measurements were collected for free Cy3 dye at pH 4, Cy3-doped nanoparticles at pH 4 and pH 7 in DPBS. Sample autocorrelation curves are shown in FIG. 9, where a shift of the curve to the right (greater characteristic diffusion time) signifies a lower diffusion coefficient and a larger hydrodynamic radius. In this case, the diffusion time of free Cy3 dye molecules is 127 μs and that of the nanoparticles at pH 7 is 1311 μs. […] The corresponding hydrodynamic radii are RH=9.40±3.83 nm for the nanoparticles at pH 7, RH=0.76±0.09 nm for the nanoparticles at pH 4 and RH=0.75±0.06 nm for the free dye at pH 4. Similar results were obtained for the nanoparticles in DI water at pH 7 and pH 4 (data not shown). In addition to the diffusion data, the particle number concentration can be determined based on the number of particles that diffuse through the observation volume. The CPNP suspension has a particle number concentration of ˜6×10^14 particles/mL, based on these determinations.
The diffusion coefficients and their associated hydrodynamic radii for the ten measurements collected for each sample type (the nanoparticle samples at pH 7 and pH 4, and the Cy3 free dye at pH 4) are listed in Table S1.

The nature of data set [5]: Relative fluorescence quantum efficiency of Cy3. The class given is physicochemical. As to conditions: PBS, excitation 532 nm, reference Rhodamine 6G. The method, then: As a comparison of the free dye to the encapsulated dye, the relative fluorescence quantum efficiency (QE) was determined according to techniques in the literature. (Williams, A. T. R.; Winfield, S. A.; Miller, J. N. The Analyst 1983, 108, 1067-1071; Kubin, R. F.; Fletcher, A. N. Journal of Luminescence 1982, 27, 455-462). In brief, the integrated fluorescence signals of the free Cy3 and the Cy3-doped CPNPs in PBS were compared to a known reference standard with an excitation wavelength of 532 nm and the QE was calculated using a modified relationship from Lakowicz (Lakowicz, J. R., Principles of Fluorescence Spectroscopy. Third ed.; Springer Science and Business Media: New York, 2006; p 54),
[formula] where Φ, and ΦR are the QE for the sample and the reference respectively, M and Mr are the slopes of the integrated intensity versus absorption plots (FIG. 12A) and n is the refractive index of each solvent. Rhodamine 6G in ethanol was used as a reference with a quantum efficiency of 0.95. (Kubin, R. F.; Fletcher, A. N. Journal of Luminescence 1982, 27, 455-462). […] FIG. 12B exemplifies this enhancement in QE by comparing the fluorescence signal of the Cy3-doped CPNPs to a solution of Cy3 free dye with the same absorption at 532 nm. […]

The nature of another data set: Solubility in water. In kind it is physicochemical.
Data set [6] can be described thus: Fluorescence emission of ICG-CPNPs versus free ICG. In kind it is physicochemical. The following applies: aqueous solution, pH 7; data not shown. The text has this: The fluorescence spectrum of the dye-doped CPNPs was compared to that of the corresponding free ICG dye under identical optical conditions (785 nm excitation). […] These undesirable phenomena result in peak transformations or spectral shifts, respectively, which are not observed for the embedded ICG emission.
For all optical measurements, samples were placed in a low-volume fluorescence cuvette (9F-SOG-10-GL14-S; Starna Cells, Inc., Atascadero, Calif.), and held by a modified cuvette holder. Absorption spectra were recorded on a PerkinElmer Lambda 950 UV-Vis-NIR spectrophotometer (Perkin Elmer, Waltham, Mass.). The dye-doped particle absorption at 785 nm was compared to a standard curve of absorption vs. ICG concentration to identify the apparent encapsulate content, not accounting for any matrix effects. Next, the release of the encapsulated fluorophore was induced with the addition of a 10:1 volume ratio of a 10^−3 M solution of ethylenediaminetetraacetic acid (EDTA) to the particle suspension. EDTA is a chelating agent that sequesters the divalent Ca^2+ ion from the nanostructure, dissolving the calcium phosphate particles. […]
Fluorescence spectra were recorded using an in-house spectroscopy system in which emitted radiation was collected at 90 degrees with a 10× microscope objective (N.A. 0.3) coupled into a fiber optic cable leading to the spectrometer (Ocean Optics HR-2000-USB). […]

The nature of data set [7]: Quantum efficiency of ICG. In kind it is physicochemical. As to conditions: PBS pH 7.4, reference HITC.
Method: Each measurement was conducted in duplicate on two separate occasions using freshly prepared stock solutions and a new set of standard data.
A short description of data set [8]: Solvent protection (emission spectra in four bio-relevant solvents). In kind it is physicochemical. As to conditions: water, DMEM, ethylene glycol, DMSO. The text has this: The chemical stability of the encapsulated fluorophore was experimentally verified by analyzing fluorescence spectra as a function of solvent environment. The effect of four bio-relevant solvents (water, Dulbecco's modified Eagle's medium (DMEM), ethylene glycol, and dimethylsulfoxide (DMSO)) on the free ICG dye is shown in FIG. 17A, with shifts in the normalized emission spectra dependent on the solvent environment. The maximum emission wavelengths have a standard deviation of 7.8 nm over an 18 nm spread. These peak values shift toward longer wavelengths due to a combination of general solvent influences and specific solvent effects, such as molecule-molecule interactions and hydrogen bonding. (Lakowicz, J. R., Principles of Fluorescence Spectroscopy. 3rd ed.; Springer: Baltimore, Md., 2006).
Fluorescence spectra were recorded using an in-house spectroscopy system in which emitted radiation was collected at 90 degrees with a 10× microscope objective (N.A. 0.3) coupled into a fiber optic cable leading to the spectrometer (Ocean Optics HR-2000-USB). A high power 785 nm diode laser (450 mW/cm^2) was used as the excitation source (RL785; Renishaw plc, Gloucestershire, UK). […] Aliquots of each were diluted 1:10 into the test solvent and kept in the dark. Measurements were conducted precisely 10 minutes after the sample introduction.

For data set [9], the system named is nude mice implanted with subcutaneous human breast adenocarcinoma tumors. The data set can be described thus: In vivo NIR imaging: pharmacokinetic distribution and tumor localization. As to conditions: 24 hours post tail vein injection. The method, then: A NIR whole animal imaging approach was used to investigate the in vivo pharmacokinetic distribution of ICG-CPNPs in nude mice. […] Two different surface functionalities of CPNPs were evaluated, as-synthesized carboxylate surface termination (not shown) and particles surface functionalized with polyethylene glycol (PEG) (series iii). The in vivo behavior of the ICG-CPNP samples were compared to two controls: a sample of carboxylated ghost CPNPs without a fluorescent encapsulate (series i) and free ICG of equivalent absorption (series ii). […] The relatively short in vivo fluorescence of the free dye is attributed to fluorescence quenching of free ICG in physiological environments (Landsman, M. L. J.; Kwant, G.; Mook, G. A.; Zijlstra, W. G. Journal of Applied Physiology 1976, 40, (4), 575-583; Desmettre, T.; Devoisselle, J. M.; Mordon, S. Survey of Opthalmology 2000, 45, (1), 15-27; Simmons, R.; Shephard, R. J. Journal of Applied Physiology 1971, 30, (4), 502-507; Gathje, J.; Steuer, R. R.; Nicholes, K. R. K. Journal of Applied Physiology 1970, 29, (2), 181-185; Mordon, S.; Devoisselle, J. M.; Soulie-Begu, S.; Desmettre, T. Microvascular Research 1998, 55, (2), 146-152; Maarek, J. M. I.; Holschneider, D. P.; Harimoto, J. Journal of Photochemistry and Photobiology B-Biology 2001, 65, (2-3), 157-164) with rapid aggregation and clearance from the body. […]

Another data set deals with animal subjects. The following applies: cited from earlier work.

Entries after “also recorded” stand apart in the source; their conditions may differ. Counter-ions that a name gives are not always drawn.

`CN1C(=CC=CC=CC=CC2=[N+](C)c3ccccc3C2(C)C)C(C)(C)c2ccccc21.[I-]` [hexamethylindotricarbocyanine (HITC), 1,1′,3,3,3′,3′-hexamethylindotricarbocyanine iodide]: the “quantum yield of reference dye” value in data set [1] is reported as 0.28.

Regarding `CCCCCCCCCCCCC/C=C/[C@@H](O)[C@H](CO)NC(=O)CCCCCCCCC` [Cer10 in DMSO, Decanoyl-ceramide], the “caspase 3/7 activity (apoptosis)” value in data set [2] and in data set [3] was “not” each time.

Turning to Cy3 amidite [Cy3 Dye], the figures for the “Diffusion coefficient, average” value in data set [4] and in data set [4] (listed as free Cy3 dye) were 2.90 × 10^−6 cm^2/s and 29.0±0.18×10^−7 cm^2/s, respectively. Further, the “RH (hydrodynamic radius), average” value in data set [4] is on record as 0.751 nm; in [4] (listed as free Cy3 dye) it was 0.75±0.06 nm. Moreover, the diffusion time in [4] (sample autocorrelation curve, free dye pH 4) stood at 127 μs. The quantum efficiency in [5] (listed as Cy3 in free solution) was found to be 0.045; in data set [5] (listed as free Cy3 dye) it was 0.045±0.002. Besides, in “Solubility in water”, the solubility in water is on record as below 0.05 mg/mL.

Usually LD50 stands for the dose expected to kill half of the subjects tested. `CC1(C)C(/C=C/C=C/C=C/C=C2\N(CCCCS(=O)(=O)O)c3ccc4ccccc4c3C2(C)C)=[N+](CCCCS(=O)(=O)[O-])c2ccc3ccccc3c21` [free ICG, indocyanine green]: in [6], the “concentration at which self-aggregation and loss of emission intensity occur” value is 7 µM. In data set [7], the “quantum efficiency (per molecule)” value was 0.028±0.001. Further, the “spread of maximum emission wavelengths over four solvents” value in data set [8] amounted to 18 nm. Moreover, in data set [9], the “in vivo fluorescence signal” value was “no detectable signal; also recorded: No fluorescence signal is detected”. For the same compound, in the data set on animal subjects, the median lethal dose (LD50) is 50 to 80 mg/kg.

Usually solubility stands for the concentration that dissolves in the medium under given conditions. High values mean a readily soluble substance, low ones a poorly soluble substance. In turn, `O=C1OC2(c3ccc(O)cc3Oc3cc(O)ccc32)c2ccccc21` [fluorescein sodium salt] gave a solubility in “Solubility in water” (water) above 40 mg/mL.

These data come from patent US8771741B2, “In vivo photodynamic therapy of cancer via a near infrared agent encapsulated in calcium phosphate nanoparticles” (The Penn State Research Foundation, priority 2009, dated 2014).
